Several values for one entry are separate records, joined by “and”; a condition that tells them apart may be missing. Equal values may be shown once. Read-outs that look alike come from different tables or passages of the source.
Tests used:
[1] = design: method as in Frearson et al., 2010; details: ref Frearson et al., 2010; cited from earlier work
[2] = target: T1, TbNMT (Trypanosoma brucei brucei, UniProt Q388H8); assay: Radiometric SPA-based enzyme-inhibition assay, TbNMT; format: biochemical; design: The gene encoding TbNMT was cloned into a pET-15-derived expression vector; 6xHis followed by TEV cleavage site (N); made in house; host or cells: Escherichia coli Rosetta (DE3); details: single fragment concentration of 0.5 mM
T1 sequence (Q388H8 1-446): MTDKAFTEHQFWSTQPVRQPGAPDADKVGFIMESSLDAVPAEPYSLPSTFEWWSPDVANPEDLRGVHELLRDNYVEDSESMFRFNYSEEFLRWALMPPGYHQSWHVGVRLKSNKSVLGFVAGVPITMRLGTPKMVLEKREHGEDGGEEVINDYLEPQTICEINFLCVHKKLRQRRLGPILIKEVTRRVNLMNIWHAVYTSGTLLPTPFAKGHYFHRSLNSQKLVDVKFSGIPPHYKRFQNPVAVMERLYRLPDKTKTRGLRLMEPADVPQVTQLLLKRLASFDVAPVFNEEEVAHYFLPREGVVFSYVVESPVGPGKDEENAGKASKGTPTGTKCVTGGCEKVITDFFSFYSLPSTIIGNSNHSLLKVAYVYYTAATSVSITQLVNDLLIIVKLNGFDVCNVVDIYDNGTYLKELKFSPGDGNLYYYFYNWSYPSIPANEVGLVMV
Procedure: (§1) Activity assays for TbNMT and LmNMT were carried out using a radiometric SPA-based assay as described previously (Frearson et al., 2010[▶]; Brand et al., 2014[▶]). Percentage inhibition (PI) was determined using a fragment concentration of 0.5 mM in the assay.

[3] = target: T2, LmNMT (Leishmania major, UniProt Q4Q5S8); assay: Radiometric SPA-based enzyme-inhibition assay, LmNMT; format: biochemical; details: single fragment concentration of 0.5 mM
T2 construct: LmNMT (5–421) was cloned into a pET-15b-derived vector; 6xHis followed by TEV cleavage site (N); made in house; host or cells: E. coli Rosetta (DE3)
Procedure: as §1

[4] = target: T1, TbNMT; assay: Biolayer interferometry binding, TbNMT; design: The gene encoding TbNMT was cloned into a pET-15-derived expression vector; 6xHis followed by TEV cleavage site (N); made in house; host or cells: Escherichia coli Rosetta (DE3); details: for increase of affinity in the presence of myristoyl-CoA, TbNMT: with vs without myristoyl-CoA; for LE TbNMT, MYA (absence of cofactor) / LE TbNMT, +MYA: ligand efficiency calculated from K d; for LE TbNMT, MYA (absence of cofactor): absence of myristoyl-CoA; for LE TbNMT, +MYA: presence of myristoyl-CoA
Procedure: (§2) TbNMT and LmNMT were biotinylated by incubation with NHS-PEG4-biotin (Thermo) in a 1:1 molar ratio for 30 min at room temperature before free biotinylation reagent was removed by passage through a 2 ml Zeba desalt spin column (Thermo). Biolayer interferometry (BLI) measurements were carried out using an Octet RED 384 instrument (ForteBio). TbNMT and LmNMT were immobilized upon superstreptavidin (SSA) biosensors by incubation for 900 s at 25 and 50 µg ml^−1, respectively, before free streptavidin sites were blocked by a 60 s dip into 10 µg ml^−1 biocytin (Tocris). A control set of SSA biosensors were prepared in parallel by blocking the surface with biocytin. A seven-point concentration series was prepared for each fragment molecule in threefold dilution steps from a top concentration of 1 mM. For each set of biosensors, a 60 s baseline in buffer alone was acquired followed by a 60 s association step and a 180 s dissociation step. […] Data were processed and analysed and K d values were determined using the global fitting procedures as implemented in ForteBio Data Analysis Software v.7.0.1.5. The ligand efficiency metric was calculated using LE = −RTlnK d/heavy-atom count (Hopkins et al., 2004[▶]).

[5] = target: T1, TbNMT; assay: Fragment screen by ligand-observed NMR spectroscopy (STD, water-LOGSY, CPMG) with DDD85646 competition; details: fragments at 500 µM, binding and competition with 50 µM DDD85646 in STD
Procedure: TbNMT was prepared at 10 µM in 25 mM sodium phosphate pH 7.4 and 10% deuterated water and the cofactor myristoyl-CoA was added to a final concentration of 50 µM.

[6] = target: T2, LmNMT; assay: Biolayer interferometry binding, LmNMT; details: for increase of affinity in the presence of myristoyl-CoA, LmNMT: with vs without myristoyl-CoA; for LE LmNMT, MYA (absence of cofactor) / LE LmNMT, +MYA: ligand efficiency calculated from K d; for LE LmNMT, MYA (absence of cofactor): absence of myristoyl-CoA; for LE LmNMT, +MYA: presence of myristoyl-CoA
Procedure: as §2

[7] = BLI, absence of the cofactor myristoyl-CoA (MYA), read-out: K d TbNMT, MYA (absence of cofactor)
[8] = BLI, presence of 1 µM myristoyl-CoA (MYA), read-out: K d TbNMT, +MYA
[9] = BLI, absence of the cofactor myristoyl-CoA (MYA), read-out: K d LmNMT, MYA (absence of cofactor)
[10] = BLI, presence of 1 µM myristoyl-CoA (MYA), read-out: K d LmNMT, +MYA

T2 sequence (Q4Q5S8 entry or part of it): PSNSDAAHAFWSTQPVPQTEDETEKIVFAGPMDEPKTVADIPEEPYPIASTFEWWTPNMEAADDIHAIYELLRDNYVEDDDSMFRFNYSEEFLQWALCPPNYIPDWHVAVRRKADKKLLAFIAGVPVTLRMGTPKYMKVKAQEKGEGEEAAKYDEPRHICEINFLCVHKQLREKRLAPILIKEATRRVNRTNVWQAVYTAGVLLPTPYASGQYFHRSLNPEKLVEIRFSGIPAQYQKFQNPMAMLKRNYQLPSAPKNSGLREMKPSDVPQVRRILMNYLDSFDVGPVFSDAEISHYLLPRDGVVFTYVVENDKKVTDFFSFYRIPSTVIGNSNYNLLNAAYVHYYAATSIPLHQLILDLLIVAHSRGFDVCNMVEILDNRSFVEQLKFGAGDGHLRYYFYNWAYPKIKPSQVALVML

Cc1nn(C)c(C)c1NS(=O)(=O)c1c(Cl)cc(-c2ccnc(N3CCNCC3)c2)cc1Cl [DDD85646]
CNS exposure [1]: lack of CNS exposure

CNCc1cccc(CN2CCOCC2)c1 [Fragment 2]
PI (%) TbNMT [2]: 36% | PI (%) LmNMT [3]: 55% | Kd [4, 7]: 760 µM | Kd [4, 8]: 90 µM | increase of affinity in the presence of myristoyl-CoA, TbNMT ([4]; BLI): around fivefold | LE TbNMT, MYA (absence of cofactor) [4]: < 0.3 and 0.26 | LE TbNMT, +MYA [4]: > 0.3 and 0.34 | NMR hit class [5]: class I | Kd [6, 9]: 980 µM | Kd [6, 10]: 200 µM | increase of affinity in the presence of myristoyl-CoA, LmNMT ([6]; BLI): around fivefold | LE LmNMT, MYA (absence of cofactor) [6]: 0.25 | LE LmNMT, +MYA [6]: 0.31

CNCc1cc(-c2ccccc2)nn1C [Fragment 3]
PI (%) TbNMT [2]: 70% | PI (%) LmNMT [3]: 52% | Kd [4, 7]: 530 µM | Kd [4, 8]: 200 µM | increase of affinity in the presence of myristoyl-CoA, TbNMT ([4]; BLI): around fivefold | LE TbNMT, MYA (absence of cofactor) [4]: < 0.3 and 0.30 | LE TbNMT, +MYA [4]: > 0.3 and 0.33 | NMR hit class [5]: class II | Kd [6, 9]: 700 µM | Kd [6, 10]: 180 µM | increase of affinity in the presence of myristoyl-CoA, LmNMT ([6]; BLI): around fivefold | LE LmNMT, MYA (absence of cofactor) [6]: 0.28 | LE LmNMT, +MYA [6]: 0.34

Nc1ccccc1N1CCNCC1 [Fragment 4]
PI (%) LmNMT [3]: 53% | Kd [4]: 48 µM | LE TbNMT, MYA (absence of cofactor) [4]: 0.45 | NMR hit class [5]: class II | Kd [6]: 98 µM | LE LmNMT, MYA (absence of cofactor) [6]: 0.42
